Structures are written as SMILES.

The target of this experiment is T1, histamine H4 receptor (Homo sapiens, UniProt Q9H3N8).
T1 construct: expressed in transfected cells; host or cells: HEK293SFM cells (membrane preparation)
T1 sequence (Q9H3N8 whole entry): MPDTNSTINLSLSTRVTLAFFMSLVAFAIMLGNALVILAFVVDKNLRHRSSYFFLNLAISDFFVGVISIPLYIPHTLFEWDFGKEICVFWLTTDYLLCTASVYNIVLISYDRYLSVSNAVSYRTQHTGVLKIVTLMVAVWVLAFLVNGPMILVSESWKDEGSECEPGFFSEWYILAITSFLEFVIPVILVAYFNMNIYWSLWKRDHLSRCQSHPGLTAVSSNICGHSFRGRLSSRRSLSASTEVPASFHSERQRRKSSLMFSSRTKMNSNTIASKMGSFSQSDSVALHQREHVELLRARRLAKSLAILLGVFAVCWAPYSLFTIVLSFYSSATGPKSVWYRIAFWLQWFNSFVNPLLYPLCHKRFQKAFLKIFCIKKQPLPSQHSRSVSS
As to the kind of experiment: H4 Membrane Binding Assay (3H-Histamine displacement). The note with it: membranes of recombinant HEK293SFM cells, 10 nM 3H-Histamine, 1.5 hr at room temperature. Put shortly:
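Membranes from HEK293SFM cells expressing human H4 (also human H1–H3, mouse H4), prepared in ice-cold 50 mM Tris-HCl pH 7.5. [3H]-histamine displacement, nonspecific binding defined with 1000× unlabeled ligand. Bound radioactivity separated on PEI-treated GF/B filters and measured by liquid scintillation counting.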
For the compound `CC(CC(=O)N1CCc2ccc(-c3cc(N4CCN(C)CC4)nc(N)n3)cc2C1)C(F)(F)F` (centres unmarked) [Example 62, 4-(4-Methylpiperazin-1-yl)-6-[2-(4,4,4-trifluoro-3-methylbutanoyl)-1,2,3,4-tetrahydroisoquinolin-7-yl]pyrimidin-2-amine], the IC50 amounted to 24 nM.

Turning to `CN1CCN(c2nc(N)nc3cc(C(=O)NC4CCCc5ccc(OCc6cccc(C#N)c6)cc54)ccc23)CC1` (centres unmarked) [Example 202, 2-Amino-N-(7-(3-cyanobenzyloxy)-1,2,3,4-tetrahydronaphthalen-1-yl)-4-(4-methylpiperazin-1-yl)quinazoline-7-carboxamide], the IC50 came to 9.2 nM.

Consider `COc1ccc(C#N)c(Oc2cccc(CNC(=O)c3ccc4c(N5CCN(C)CC5)nc(N)nc4c3)c2)c1` [Example 180, 2-Amino-N-[3-(2-cyano-5-methoxyphenoxy)benzyl]-4-(4-methylpiperazin-1-yl)quinazoline-7-carboxamide], for which the IC50 came out at 25 nM.

Consider `CN1CCN(c2cc(-c3ccc4c(c3)CN(C(=O)CC3CCN(C(=O)c5ccccc5)CC3)CC4)nc(N)n2)CC1` [Example 73, 4-{2-[(1-Benzoylpiperidin-4-yl)acetyl]-1,2,3,4-tetrahydroisoquinolin-7-yl}-6-(4-methylpiperazin-1-yl)pyrimidin-2-amine], for which the IC50 turned out to be 357 nM.

Regarding `CC(Cc1ccc(Oc2ccccc2)cc1)NC(=O)c1ccc2c(N3CCN(C)CC3)nc(N)nc2c1` (centres unmarked) [Example 142, 2-Amino-N-[1-methyl-2-(4-phenoxyphenyl)ethyl]-4-(4-methylpiperazin-1-yl)quinazoline-7-carboxamide], the IC50 was determined as 34 nM.

Take `CN1CCN(c2cc(-c3ccc4c(c3)CN(C(=O)CC3CCOCC3)CC4)nc(N)n2)CC1` [Example 110, 4-(4-Methylpiperazin-1-yl)-6-[2-(tetrahydro-2H-pyran-4-ylacetyl)-1,2,3,4-tetrahydroisoquinolin-7-yl]pyrimidin-2-amine]: the IC50 is 86 nM.

Consider `CN1CCN(c2cc(-c3ccc4c(c3)CN(C(=O)Cc3ccc(Cl)nc3)CC4)nc(N)n2)CC1` [Example 108, 4-{2-[(6-Chloropyridin-3-yl)acetyl]-1,2,3,4-tetrahydroisoquinolin-7-yl}-6-(4-methylpiperazin-1-yl)pyrimidin-2-amine], for which the IC50 came out at 33 nM.

Consider `COC(=O)c1cccc(COc2ccc3c(c2)C(NC(=O)c2ccc4c(N5CCN(C)CC5)nc(N)nc4c2)CCC3)c1` (centres unmarked) [Example 204, Methyl 3-((8-(2-amino-4-(4-methylpiperazin-1-yl)quinazoline-7-carboxamido)-5,6,7,8-tetrahydronaphthalen-2-yloxy)methyl)benzoate], for which the IC50 was determined as 9.3 nM.

In the case of `CN1CCN(c2cc(-c3ccc4c(c3)CN(C(=O)Nc3nc5ccccc5s3)CC4)nc(N)n2)CC1` [Example 90, 7-[2-Amino-6-(4-methylpiperazin-1-yl)pyrimidin-4-yl]-N-1,3-benzothiazol-2-yl-3,4-dihydroisoquinoline-2(1H)-carboxamide], the half-maximal inhibitory concentration (IC50) turned out to be 143 nM.

As for `CN1CCN(c2cc(-c3ccc4c(c3)CN(C(=O)Nc3nccs3)CC4)nc(N)n2)CC1` [Example 88, 7-[2-Amino-6-(4-methylpiperazin-1-yl)pyrimidin-4-yl]-N-1,3-thiazol-2-yl-3,4-dihydroisoquinoline-2(1H)-carboxamide], the IC50 was 135 nM.

On to `COc1ccc(NC(=O)N2CCc3ccc(-c4cc(N5CCN(C)CC5)nc(N)n4)cc3C2)cn1` [Example 46, 7-[2-Amino-6-(4-methylpiperazin-1-yl)pyrimidin-4-yl]-N-(6-methoxypyridin-3-yl)-3,4-dihydroisoquinoline-2(1H)-carboxamide], for which the IC50 came to 70 nM.

Take `CC(NC(=O)c1ccc2c(N3CCN(C)CC3)nc(N)nc2c1)c1ccc(Br)cc1` (centres unmarked) [Example 31, 2-Amino-N-[1-(4-bromophenyl)ethyl]-4-(4-methylpiperazin-1-yl)quinazoline-7-carboxamide]: the IC50 amounted to 355 nM.

With `CN1CCN(c2cc(-c3ccc4c(c3)CN(C(=O)Nc3ccc(-n5cccn5)cc3)CC4)nc(N)n2)CC1` [Example 93, 7-[2-Amino-6-(4-methylpiperazin-1-yl)pyrimidin-4-yl]-N-[4-(1H-pyrazol-1-yl)phenyl]-3,4-dihydroisoquinoline-2(1H)-carboxamide], the IC50 was found to be 43 nM.

For the compound `CCO[C@H]1CCCC[C@H]1NC(=O)N1CCc2ccc(-c3cc(N4CCN(C)CC4)nc(N)n3)cc2C1` (relative stereo) [Example 85, 7-[2-Amino-6-(4-methylpiperazin-1-yl)pyrimidin-4-yl]-N-[(cis)-2-ethoxycyclohexyl]-3,4-dihydroisoquinoline-2(1H)-carboxamide], the IC50 came out at 57 nM.

As for `CN1CCN(c2cc(-c3ccc4c(c3)CN(C(=O)N3CCCC3)CC4)nc(N)n2)CC1` [Example 9, 4-(4-Methylpiperazin-1-yl)-6-[2-(pyrrolidin-1-ylcarbonyl)-1,2,3,4-tetrahydroisoquinolin-7-yl]pyrimidin-2-amine], the IC50 was 301 nM.

For the compound `CCOC(=O)c1cc(C)nc(Oc2cccc(CNC(=O)c3ccc4c(N5CCN(C)CC5)nc(N)nc4c3)c2)c1C#N` [Example 186, Ethyl 2-{3-[({[2-amino-4-(4-methylpiperazin-1-yl)quinazolin-7-yl]carbonyl}amino)methyl]phenoxy}-3-cyano-6-methylisonicotinate], the IC50 was 7.9 nM.

As for `CN1CCN(c2cc(-c3ccc4c(c3)CN(C(=O)NC3CCCC3)CC4)nc(N)n2)CC1` [Example 5, 7-[2-Amino-6-(4-methylpiperazin-1-yl)pyrimidin-4-yl]-N-cyclopentyl-3,4-dihydroisoquinoline-2(1H)-carboxamide], the IC50 stood at 20.8 nM.

Consider `CC(C)OC(=O)N1CCC(OC(=O)N2CCc3ccc(-c4cc(N5CCN(C)CC5)nc(N)n4)cc3C2)CC1` [Example 68, 1-(Isopropoxycarbonyl)piperidin-4-yl 7-[2-amino-6-(4-methylpiperazin-1-yl)pyrimidin-4-yl]-3,4-dihydroisoquinoline-2(1H)-carboxylate], for which the IC50 came out at 38 nM.

Take `CN1CCN(c2nc(N)nc3cc(C(=O)NCc4cccc(Oc5cnc6ccccc6n5)c4)ccc23)CC1` [Example 188, 2-Amino-4-(4-methylpiperazin-1-yl)-N-[3-(quinoxalin-2-yloxy)benzyl]quinazoline-7-carboxamide]: the IC50 was found to be 13 nM.

With `CN1CCN(c2cc(-c3ccc4c(c3)CN(C(=O)OC3CCN(C(=O)C5CCCC5)CC3)CC4)nc(N)n2)CC1` [Example 67, 1-(Cyclopentylcarbonyl)piperidin-4-yl 7-[2-amino-6-(4-methylpiperazin-1-yl)pyrimidin-4-yl]-3,4-dihydroisoquinoline-2(1H)-carboxylate], the IC50 was 110 nM.

On to `COc1cc(COc2cccc(CNC(=O)c3ccc4c(N5CCN(C)CC5)nc(N)nc4c3)c2)cc(OC)c1` [Example 194, 2-Amino-N-{3-[(3,5-dimethoxybenzyl)oxy]benzyl}-4-(4-methylpiperazin-1-yl)quinazoline-7-carboxamide], for which the IC50 worked out at 8.7 nM.

Turning to `CC(C)OC(=O)N1CCc2ccc(-c3cc(N4CCN(C)CC4)nc(N)n3)cc2C1` [Example 11, Isopropyl 7-[2-amino-6-(4-methylpiperazin-1-yl)pyrimidin-4-yl]-3,4-dihydroisoquinoline-2(1H)-carboxylate], the IC50 turned out to be 43 nM.

As to `CN1CCN(c2cc(-c3ccc4c(c3)CN(C(=O)N[C@H]3C[C@@H]3c3ccccc3)CC4)nc(N)n2)CC1` (relative stereo) [Example 49, 7-[2-Amino-6-(4-methylpiperazin-1-yl)pyrimidin-4-yl]-N-(trans-2-phenylcyclopropyl)-3,4-dihydroisoquinoline-2(1H)-carboxamide], the IC50 came to 47 nM.

Turning to `CN1CCN(c2cc(-c3ccc4c(c3)CN(C(=O)Nc3nc(C(F)(F)F)cs3)CC4)nc(N)n2)CC1` [Example 50, 7-[2-Amino-6-(4-methylpiperazin-1-yl)pyrimidin-4-yl]-N-[4-(trifluoromethyl)-1,3-thiazol-2-yl]-3,4-dihydroisoquinoline-2(1H)-carboxamide], the IC50 came out at 58 nM.

In the case of `CN1CCN(c2cc(-c3ccc4c(c3)CN(C(=O)Nc3ccc(-c5ccccc5)cn3)CC4)nc(N)n2)CC1` [Example 91, 7-[2-Amino-6-(4-methylpiperazin-1-yl)pyrimidin-4-yl]-N-(5-phenylpyridin-2-yl)-3,4-dihydroisoquinoline-2(1H)-carboxamide], the IC50 stood at 63 nM.

On to `CO[C@H]1Cc2ccccc2[C@H]1NC(=O)N1CCc2ccc(-c3cc(N4CCN(C)CC4)nc(N)n3)cc2C1` [Example 58, 7-[2-Amino-6-(4-methylpiperazin-1-yl)pyrimidin-4-yl]-N-[(1R,2S)-2-methoxy-2,3-dihydro-1H-inden-1-yl]-3,4-dihydroisoquinoline-2(1H)-carboxamide], for which the IC50 stood at 165 nM.

With `CCS(=O)(=O)N1CCC(CC(=O)N2CCc3ccc(-c4cc(N5CCN(C)CC5)nc(N)n4)cc3C2)CC1` [Example 74, 4-(2-{[1-(Ethylsulfonyl)piperidin-4-yl]acetyl}-1,2,3,4-tetrahydroisoquinolin-7-yl)-6-(4-methylpiperazin-1-yl)pyrimidin-2-amine], the IC50 came out at 123 nM.

`CN1CCN(c2nc(N)nc3cc(C(=O)NC(Cc4cccc(Oc5cc(C#N)ccc5C(F)(F)F)c4)C(=O)N(C)C)ccc23)CC1` (centres unmarked) [Example 171, 2-Amino-N-[1-{3-[5-cyano-2-(trifluoromethyl)phenoxy]benzyl}-2-(dimethylamino)-2-oxoethyl]-4-(4-methylpiperazin-1-yl)quinazoline-7-carboxamide]: the IC50 came to 13 nM.

On to `CN1CCN(c2cc(-c3ccc4c(c3)CN(C(=O)CC3(C#N)CCCC3)CC4)nc(N)n2)CC1` [Example 122, 1-{2-[7-[2-Amino-6-(4-methylpiperazin-1-yl)pyrimidin-4-yl]-3,4-dihydroisoquinolin-2(1H)-yl]-2-oxoethyl}cyclopentanecarbonitrile], for which the IC50 is 22 nM.

For orientation: IC50 means the point on the concentration scale where inhibition reaches its midpoint.

The values above are taken from patent US8481732B2 (Incyte Corporation, priority 2009, dated 2013).
